Measurements reported in ChEMBL document CHEMBL1212755, “Factors influencing pharmacokinetics of prophylactic posaconazole in patients undergoing allogeneic stem cell transplantation” (Antimicrob Agents Chemother, 2010).

Legend:
Assay type in all cases: ADME, organism-based
[1] = Cmax in patient undergoing allogenic hematopoietic stem cell transplantation; settings: human, in vivo
[2] = Apparent oral clearance in patient undergoing allogenic hematopoietic stem cell transplantation; settings: human, in vivo
[3] = Apparent volume of distribution in patient undergoing allogenic hematopoietic stem cell transplantation; settings: human, in vivo; read-out: Vc/F
[4] = Apparent oral clearance in patient without diarrhea undergoing allogenic hematopoietic stem cell transplantation; settings: human, in vivo
[5] = Apparent oral clearance in patient with diarrhea undergoing allogenic hematopoietic stem cell transplantation; settings: human, in vivo
[6] = Apparent volume of distribution in patient without diarrhea undergoing allogenic hematopoietic stem cell transplantation; settings: human, in vivo; read-out: Vc/F
[7] = Apparent volume of distribution in patient with diarrhea undergoing allogenic hematopoietic stem cell transplantation; settings: human, in vivo; read-out: Vc/F
[8] = species: Homo sapiens; assay: Drug level in patient undergoing allogenic hematopoietic stem cell transplantation; settings: in vivo

In the case of `CC[C@@H]([C@H](C)O)n1ncn(-c2ccc(N3CCN(c4ccc(OC[C@@H]5CO[C@@](Cn6cncn6)(c6ccc(F)cc6F)C5)cc4)CC3)cc2)c1=O` [POSACONAZOLE], the Cmax [1] is reported as 654 ng/mL, the CL/F [2] is reported as 1260 mL/min and the Vd/F [3] is reported as 835 L. The CL/F [4] was 1120 mL/min, the CL/F [5] was 1890 mL/min and the Vd/F [6] was 2250 L. The Vd/F [7] was 3800 L and the Drug uptake [8] was 411 µg/L.
